In publication PMC9685055, “Biological activity of new bioactive steroids deriving from biotransformation of cortisone” (Microbial Cell Factories, 2022):

Experiments:
[1] = Photochemiluminescence (PCL-ACL) antioxidant assay; settings: 0.1 mg/mL; Trolox equivalents per g of sample
Protocol: Photochemiluminescence assay, based on the methodology of Popov and Lewin [35], was performed to measure the antioxidant activity of cortisone, SCA and SCB compounds against superoxide anion radicals generated from luminol, a photosensitizer, when exposed to UV light at λmax = 351 nm. The antioxidant activity of compounds was measured using ACL kits (Analytic Jena, Jena, Germany) with a Photochem apparatus (Analytic Jena, Jena, Germany). In the PCL-ACL assay, the photochemical generation of free radicals is combined with the sensitive detection using chemiluminescence. In ACL studies, the kinetic light emission curve was monitored for 3 min and expressed as mM Trolox equivalents. The areas under the curves were calculated using the PCL soft control and analysis software. […] The observed inhibition of the signal was plotted against the concentration of Trolox added to the assay medium. The concentration of the added sample was such that the generated luminescence during the 3 min sampling interval fell within the limits of the standard curve. For ACL assay, 2.3 mL of reagent 1 (solvent and dilution reagent, methanol), 0.2 mL of reagent 2 (buffer solution), 25 μL of reagent 3 (photosensitizer: luminol 1 mmol L^−1), and 10 μL of standard or sample solution were mixed and measured. Luminol is used as a photosensitizer and as a detecting substance for free radicals. Trolox were used for the standard calibration curve from […].

[2] = target: T1, human glucocorticoid receptor (NR3C1) (Homo sapiens, UniProt P04150); test: Glucocorticoid receptor transactivation reporter assay; assay type: cell-based; settings: 10 µM, 24 h, luciferase reporter cells
T1 construct: constitutive high-level expression of full length, unmodified human glucocorticoid receptor (NR3C1)
T1 sequence (P04150 1-777): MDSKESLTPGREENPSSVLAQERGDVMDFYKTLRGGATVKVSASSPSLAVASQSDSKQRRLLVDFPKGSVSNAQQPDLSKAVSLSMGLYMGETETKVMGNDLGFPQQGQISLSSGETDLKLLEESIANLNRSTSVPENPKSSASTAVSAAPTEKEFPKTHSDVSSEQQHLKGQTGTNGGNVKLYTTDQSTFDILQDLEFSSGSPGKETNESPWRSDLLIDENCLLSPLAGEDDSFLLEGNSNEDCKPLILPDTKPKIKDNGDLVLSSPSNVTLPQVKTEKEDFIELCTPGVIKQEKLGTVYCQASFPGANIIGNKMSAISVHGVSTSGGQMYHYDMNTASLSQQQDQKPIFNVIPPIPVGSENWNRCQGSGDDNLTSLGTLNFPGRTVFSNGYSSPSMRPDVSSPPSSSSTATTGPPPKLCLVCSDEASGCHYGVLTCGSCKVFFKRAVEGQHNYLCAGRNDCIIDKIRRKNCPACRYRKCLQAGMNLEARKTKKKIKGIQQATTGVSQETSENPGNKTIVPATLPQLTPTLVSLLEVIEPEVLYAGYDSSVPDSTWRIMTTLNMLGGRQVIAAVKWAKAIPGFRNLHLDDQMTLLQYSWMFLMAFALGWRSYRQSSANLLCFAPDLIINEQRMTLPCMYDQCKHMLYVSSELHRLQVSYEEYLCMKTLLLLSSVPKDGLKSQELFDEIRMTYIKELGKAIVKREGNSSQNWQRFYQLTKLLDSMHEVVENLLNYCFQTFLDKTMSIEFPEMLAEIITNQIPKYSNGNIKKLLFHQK
Protocol: Glucocorticoid receptor transactivation assays kit was obtained from Indigo Biosciences (Human Glucocorticoid Receptor Reporter Assay Kit, Product #IB0020-32; Indigo Biosciences, State College, PA, USA) and was utilized to assess the activation of human glucocorticoid receptor by SCA and/or SCB. Briefly, stocks of the tested compounds were prepared and diluted in a medium provided by the manufacturer. Frozen reporter cells provided in the assay kit were thawed and compound dilutions were added immediately. Cells were incubated for 24 h and the activation response was measured on a luminometer (Perkin-Elmer, MA, USA). The cells consisted of non-human mammalian cells engineered by Indigo Biosciences to provide constitutive high-level expression of full length, unmodified human glucocorticoid receptor (NR3C1). The nonhuman mammalian reporter cells included a luciferase reporter gene functionally linked to a human glucocorticoid receptor-responsive promoter. The cells are engineered so that only interactions with the human receptor will induce luciferase expression in the treated reporter cells to quantitate nuclear receptor activation. Positive control ligand performance was measured by the manufacturer and provided in the technical manuals thus allowing accurate comparison for assay performance. […]

[3] = DPPH radical scavenging assay; settings: 0.1 mg/mL; Trolox equivalents
Protocol: The DPPH assay was evaluated according to Aadil (2013) and Bonetti (2016). Fifty microliters of samples (cortisone, SCA and SCB) were added to […] of 0.06 mM of methanolic DPPH· radical solution. The reaction mixture was left to stand at room temperature in the dark for 15 min. The absorbance for the sample (Asample) was measured at 515 nm against methanol blank. A control was the absorbance of DPPH· solution.
Methanolic solutions with different Trolox concentrations (0.05 − 1 mM/L) were analyzed for calibration curve. The free radical scavenging capacity was expressed as micromolar of Trolox equivalents (TEs)/g of SCA and SCB compounds using calibration curve.

Structure (SMILES)	antioxidant capacity, PCL-ACL assay [1]	glucocorticoid receptor activation [2]	DPPH radical scavenging activity (in words) [3]
Cc1ccc(O)c2c1CCC1C3CC[C@](O)(C(=O)CO)[C@@]3(C)CC(=O)[C@@]21O (stereo partly drawn) [SCA, 1,9β,17,21‐tetrahydoxy‐4‐methyl‐19‐nor‐9β‐pregna‐1,3,5(10)‐trien‐11,20‐dione]	1375 µmol/g	activated glucocorticoid receptors	high antioxidant property compared with the cortisone precursor
Cc1ccc(O)c2c1CCC1C3CC[C@](O)([C@H](O)CO)[C@@]3(C)CC(=O)[C@@]21O (stereo partly drawn) [SCB, 1,9β,17,20β,21‐ pentahydoxy‐4‐methyl‐19‐nor‐9β‐pregna‐1,3,5(10)‐trien‐11‐one]	1265 µmol/g	activated glucocorticoid receptors	high antioxidant property compared with the cortisone precursor
